Experimental data from US8999293B2, “Animal model of anxiety and depression” (University of Mississippi, priority 2005, dated 2015).
Where two headings read alike, the source gives them in different places.

Columns and labels:
[1] = test system: isolated cockerels (Gallus gallus; W36); assay: Chick anxiety-depression model, drug probe studies, 120 min isolation (Example 3); details: for ED50: Gallus gallus; for isolation-induced DVoc rate during the anxiety-like phase (first five min time block) / isolation-induced DVoc rate during the depression-like phase (30-120 min) / sleep onset latency (SOL) to index sedation: IM fifteen minutes prior to testing; for isolation-induced DVoc rate during the anxiety-like phase (first five min time block) / isolation-induced DVoc rate during the depression-like phase (30-120 min): vs vehicle/isolated; for isolation-induced DVoc rate during the anxiety-like phase (first five min time block): attenuation = anxiolytic effect; for isolation-induced DVoc rate during the depression-like phase (30-120 min): increase = antidepressant effect; for sleep onset latency (SOL) to index sedation: vs vehicle/isolated chicks
Method: Subjects and Housing Procedures. Cockerels (Gallus gallus; W36; Cal-Maine Foods, Inc.; Mendenhall, Miss.) were received one-day posthatch and housed in 34×57×40 cm stainless steel cages with 12-13 chicks per cage. Food (Purina Start and Grow, St. Louis, Mo.) and water were available ad libitum through one quart gravity-fed feeders (Murray MacMurray; Model 4BGFJ) and waterers (Murray MacMurray; Model 4YQW0). Room temperature was maintained at 29±1° C. and overhead illumination was maintained on a 12 hr light-dark cycle. Daily maintenance, which was conducted during the first three hr of the light cycle, involved refilling the waterer, refilling the feeder, and replacement of tray liners.
Apparatus. The testing apparatus consisted of a six-unit test apparatus containing Plexiglas viewing chambers (25×25×22 cm) placed in sound-attenuating enclosures. Each unit was illuminated and heated by a 25-W light bulb. Ventilation was provided by an eight centimeter diameter rotary fan (Commonwealth Model FP-108AX 51). Miniature video cameras (SuperCircuit Model PC60XP) mounted in the sound-attenuating enclosures at floor level and routed through a Multiplexor (SuperCircuit Model PC47MC) provided televised display of the chicks for behavioral observation. Distress vocalizations (DVocs) were recorded by microphones (Lafayette Instruments Model 3-675-001) mounted in the ceilings of the Plexiglas chambers and connected to digital sound-activating relays (Lafayette Instruments Model 63040A; settings: 75% sensitivity and 0.10 s delay) that triggered electromechanical counters (Lafayette Instruments Model 58004).
Drug Probes. All experiments were conducted between five- and seven days posthatch. The groups in each experiment formed a 1×5 factorial design with a hanging control condition (n=9-12). The two vehicle control groups constituted the social separation stress manipulation. This manipulation involved placing a chick in the Plexiglas test chamber either in isolation or with two social companions for a 120 min test observation period. All drug probes were tested in the isolation condition.
Vehicle or a drug was administered IM fifteen minutes prior to testing. Dependent measures that were collected during the test session were DVocs to index separation stress and sleep onset latency (SOL) to index sedation. DVocs were defined as the vocalizations that are picked up by the electromechanical counters. SOL was defined as the time in which a chick adopts a sleep-like posture with either its chest in full contact with the floor and its eyes closed or its legs in a wide posture, its head drooping, and its eyes closed. Following each six-chick test session, the animals were returned to their home cage. After all animals were tested, they were euthanized via CO^2 asphyxiation.
Statistical Analyses. In order to discretely analyze the drug effects in the anxiety-like state and the depression-like state, the raw DVoc data were converted to a rate per min score. The anxiety-like state DVoc rate consisted of the mean DVocs per min over the first five min of the test session. The depression-like state DVoc rate consisted of the mean DVocs per min from 30 min to 120 min. Following this conversion, the DVoc rates from the anxiety-like phase and depression-like phase were analyzed with a one-way ANOVA with Fisher's LSD post hoc analysis. Plasma IL-6 concentration data were analyzed using one-way ANOVA with Fisher's LSD post hoc analysis and independent sample t-tests.

domestic fowl chicks = details: cited from earlier work; for detection of anxiolytic activity on separation-induced distress vocalizations: Feltenstein et al. 2004; for detection in the chick separation stress paradigm: Warnick et al. 2006, panic disorder vs generalized anxiety disorder drugs
[2] = test system: isolated cockerels (Gallus gallus, strain W-36); type: in vivo; details: isolated chicks vs vehicle-isolated, chlordiazepoxide 8 mg/kg
From the text: Subjects. Cockerels (Gallus gallus, strain W-36; Cal-Maine Foods, Mendenhall, Miss., USA) were obtained 1 day posthatch and housed in stainless steel cages (34×57×40 cm) at a population density of 12 chicks per cage. Food (Purina Start and Grow, St. Louis, Mo., USA) and water were available ad libitum through a 1-quart gravity-fed feeders and waterers.
Apparatus. […] The units were illuminated using 25-W light bulbs and ventilated by an 8-cmdiameter rotary fan. Miniature video cameras mounted at floor level in the corner of the enclosures allowed for animal observation. Microphones that mounted at the ceiling of the Plexiglas chamber were connected to digital sound-activating relays, which activated electromechanical counters. A white noise generator provided room masking noise.
Procedure. Tests were conducted at either Day 4, 5, or 6 posthatch. Groups formed a single factorial design with a hanging control that included two vehicle-control groups in which chicks were tested in either an isolated or social condition, and two drug groups under the isolation condition. The vehicle was 0.9% physiological saline and the drug probes were chlordiazepoxide (8 mg/kg) and imipramine (15 mg/kg). Sample sizes were n=12 per cell. […]
Statistics. Data were analyzed using one- and two-way repeated measures analysis of variance (ANOVA) and one-way simple effects ANOVA. […]

[3] = test system: Black Australorp chicks (stress-vulnerable); assay: Chick anxiety-depression model, 90 min isolation, Black Australorp strain (Example 5); details: data not shown
[4] = read-out: ED50 AD Effect (40-60 min time block)
[5] = read-out: ED50 AD Effect (60-80 min time block)
[6] = read-out: ED50 AD Effect (80-100 min time block)
[7] = read-out: ED50 AD Effect (100-120 min time block)

Which ED50 ([1]; read-out: ED50 AD Effect (20-40 min time block)) does the source give for `CNCCCC12CCC(c3ccccc31)c1ccccc12` [Maprotiline, maprotiline] here?
The ED50 was 17.2 mg/kg.

What about the ED50 [1, 4] of the same compound?
Its ED50 is 14 mg/kg.

And the ED50 [1, 5]?
The ED50 was 14.9 mg/kg.

And the ED50 [1, 6]?
The ED50 was 13.6 mg/kg.

And the ED50 [1, 7]?
The ED50 was 14.6 mg/kg.

And the “isolation-induced DVoc rate during the anxiety-like phase (first five min time block)” value [1]?
The value was “significant attenuation of the separation-induced DVoc rate at the 20 mg/kg dose”.

And the “isolation-induced DVoc rate during the depression-like phase (30-120 min)” value [1]?
The value was “the three lowest doses (2.5 mg/kg, 5 mg/kg, and 10 mg/kg) exacerbated DVocs”.

Which results are given for `Clc1cccc(Cl)c1N=C1NCCN1` [clonidine]?
sleep onset latency (SOL) to index sedation [1]: significant SOL reduction in the 0.15 mg/kg and 0.20 mg/kg doses (p^s<0.05) and a marginally significant reduction in the 0.25 mg/kg dose; isolation-induced DVoc rate during the anxiety-like phase (first five min time block) [1]: significant attenuation of the separation-induced DVoc rate at all doses; isolation-induced DVoc rate during the depression-like phase (30-120 min) [1]: did not reveal a significant effect; detection of anxiolytic activity on separation-induced distress vocalizations (domestic fowl chicks): successful detection; detection in the chick separation stress paradigm (domestic fowl chicks): selectively detected

With `O=C1CC2(CCCC2)CC(=O)N1CCCCN1CCN(c2ncccn2)CC1` [buspirone] as the compound, how does the “detection in the chick separation stress paradigm” value (domestic fowl chicks) read?
Its value is “insensitive”.

For `CCCC(C)C1(CC)C(=O)NC(=O)NC1=O` (centres unmarked) [pentobarbital], which “detection of anxiolytic activity on separation-induced distress vocalizations” value (“detection of anxiolytic activity” below) (domestic fowl chicks) is on record?
The value was “successful detection”.

With `CNC1=Nc2ccc(Cl)cc2C(c2ccccc2)=[N+]([O-])C1` [chlordiazepoxide] as the compound, how does the “sleep onset latency (SOL) to index sedation” value [1] read?
The value was “significant SOL reduction in the 10 mg/kg dose”.

With `CN(C)CCCN1c2ccccc2Sc2ccc(Cl)cc21` [chlorpromazine] as the compound, how does the “detection of anxiolytic activity” value (domestic fowl chicks) read?
Its value is “insensitive”.

For `O=C(CCCN1CCC(O)(c2ccc(Cl)cc2)CC1)c1ccc(F)cc1` [haloperidol], which “detection of anxiolytic activity” value (domestic fowl chicks) is on record?
Its value is “insensitive”.

For `CC(N)Cc1ccccc1` (centres unmarked) [amphetamine], which “detection of anxiolytic activity” value (domestic fowl chicks) is on record?
Its value is “insensitive”.

For `Cc1nnc2n1-c1ccc(Cl)cc1C(c1ccccc1)=NC2` [alprazolam], which “detection in the chick separation stress paradigm” value (domestic fowl chicks) is on record?
The value was “selectively detected”.

Which “detection in the chick separation stress paradigm” value (domestic fowl chicks) does the source give for `O=c1n(CCCN2CCN(c3cccc(Cl)c3)CC2)nc2ccccn12` [trazodone] here?
Its value is “insensitive”.

Which ED50 [1, 4] does the source give for `CNCCC(Oc1ccc(C(F)(F)F)cc1)c1ccccc1` (centres unmarked) [Fluoxetine, fluoxetine] here?
Its ED50 is 16.5 mg/kg.

And the ED50 [1, 5]?
The ED50 was 13.3 mg/kg.

And the ED50 [1, 6]?
Its ED50 is 14 mg/kg.

What about the ED50 [1, 7] of the same compound?
Its ED50 is 14 mg/kg.

And the “isolation-induced DVoc rate during the anxiety-like phase (first five min time block)” value [1]?
The value was “none of the doses of fluoxetine attenuated DVocs”.

And the “isolation-induced DVoc rate during the depression-like phase (30-120 min)” value [1]?
Its value is “significant exacerbation of the DVoc rate in the 1 mg/kg, 10 mg/kg and 20 mg/kg doses”.

For `CN1[C@@H]2C[C@@H](OC(=O)[C@H](CO)c3ccccc3)C[C@H]1[C@@H]1O[C@@H]12` [scopolamine], which “detection of anxiolytic activity” value (domestic fowl chicks) is on record?
The value was “insensitive”.

Which ED50 [1, 4] does the source give for `CN(C)CCCN1c2ccccc2CCc2ccccc21` [Imipramine, imipramine] here?
The ED50 was 10 mg/kg.

What about the ED50 [1, 5] of the same compound?
The ED50 was 8.5 mg/kg.

And the ED50 [1, 6]?
Its ED50 is 9.1 mg/kg.

What about the ED50 [1, 7] of the same compound?
The ED50 was 7.6 mg/kg.

And the “isolation-induced DVoc rate during the anxiety-like phase (first five min time block)” value [1]?
The value was “significant attenuation of the separation-induced DVoc rate at the 10 mg/kg and 15 mg/kg doses”.

What about the “isolation-induced DVoc rate during the depression-like phase (30-120 min)” value [1] of the same compound?
Its value is “significant exacerbation of the DVoc rate in the 1 mg/kg, 3 mg/kg and 15 mg/kg doses (p^s<0.005) and a marginally significant exacerbation in the 10 mg/kg dose condition”.

What about the “detection of anxiolytic activity” value (domestic fowl chicks) of the same compound?
The value was “successful detection”.

And the “detection in the chick separation stress paradigm” value (domestic fowl chicks)?
Its value is “selectively detected”.

What about the “distress vocalizations (DVocs) at the first five minute time block” value ([2]; IP 15 minute before tests, imipramine 15 mg/kg) of the same compound?
The value was “attenuated DVocs”.

And the “DVoc rates at the 20 minute block and beyond” value ([2]; imipramine 15 mg/kg IP)?
Its value is “enhanced DVoc rates”.

With `NNCCc1ccccc1` [phenelzine] as the compound, how does the “detection in the chick separation stress paradigm” value (domestic fowl chicks) read?
Its value is “selectively detected”.

For `CCCC(C)(COC(N)=O)COC(N)=O` [meprobamate], which “detection of anxiolytic activity” value (domestic fowl chicks) is on record?
Its value is “successful detection”.

For `CNC1(c2ccccc2Cl)CCCCC1=O` (centres unmarked) [Ketamine, ketamine], which “antidepressant activity, follow-up study with ketamine at lower doses” value ([3]; Black Australorps) is on record?
The value was “failed to see antidepressant activity in either strain”.

And the ataxia ([3]; highest dose tested, strain not specified)?
The ataxia was “transient (5-10 min) ataxia”.
